This is an account of results in patent US5830917A, “L-N^6 -(1-iminoethyl) lysine derivatives useful as nitric oxide synthase inhibitors” (G. D. Searle & Co., priority 1995, dated 1998).

Counter-ions that a name gives are not always drawn.

The target of assay [1] is T1, human neuronal constitutive NOS (hncNOS) (Homo sapiens, UniProt P29475).
T1 construct: made in house; host or cells: insect cells, baculovirus vector
Kind of assay: Citrulline Assay for Nitric Oxide Synthase, hncNOS. It is filed as biochemical. Particulars: 37° C., 15 minutes, with calmodulin 40-100 nM. As to the method: (§1) Citrulline Assay for Nitric Oxide Synthase
(§2) Nitric oxide synthase activity was measured by monitoring the conversion of L-[2,3-3H]-arginine to L-[2,3-3H]-citrulline (1,2). The cDNA for human inducible NOS (hiNOS) was isolated from a λcDNA library made from RNA extracted from a colon sample from a patient with ulcerative colitis; human endothelial constitutive NOS (hecNOS) was isolated from a λcDNA library made from RNA extracted from human umbilical vein endothelial cells (HUVEC); and human neuronal constitutive NOS (hncNOS) was isolated from a λcDNA library made from RNA extracted from human cerebellum from a cadaver. The recombinant enzymes were expressed in insect cells using a baculovirus vector. Enzyme activity was isolated from cell extracts and partially purified by DEAE-Sepharose chromatography (2). Enzyme and inhibitors were added to give a volume of 50 μL in 50 mM Tris (pH 7.6) and the reaction initiated by the addition of 50 μL of a solution containing 50 mM Tris (pH 7.6), 2.0 mg/mL bovine serum albumin, 2.0 mM DTT, 4.0 mM CaCl2, 20 μM FAD, 100 μM tetrahydrobiopterin, 0.4-2.0 mM NADPH and 60 μM L-arginine containing 0.9 μCi of L-[2,3-3H]-arginine. […] The [3H]-citrulline was separated by chromatography on Dowex 50W X-8 cation exchange resin and radioactivity quantified with a liquid scintillation counter.

Assay [2] addresses T2, human endothelial constitutive NOS (hecNOS) (Homo sapiens, UniProt P29474).
T2 construct: made in house; host or cells: insect cells, baculovirus vector
Briefly: Citrulline Assay for Nitric Oxide Synthase, hecNOS. It is filed as biochemical. Particulars: 37° C., 15 minutes, with calmodulin 40-100 nM. As to the method: as §1, §2

Assay [3] concerns the target T3, human inducible NOS (hiNOS) (Homo sapiens, UniProt P35228).
T3 construct: made in house; host or cells: insect cells, baculovirus vector
Briefly: Citrulline Assay for Nitric Oxide Synthase, hiNOS. It is filed as biochemical. Particulars: 37° C., 15 minutes, L-[2,3-3H]-arginine to citrulline. The protocol:
as §1, §2

For assay [4], the system named is constitutive and the inducible NO synthase. Particulars: background statement; cited from earlier work.

Usually IC50 stands for the midpoint of a concentration-inhibition curve. A lower IC50 goes with greater potency in that assay. As to `CC(=N)NCCCC[C@H](N)CNS(C)(=O)=O` [Example 3, N-[5S-amino-6-[(methylsulfonyl)amino]hexyl]ethanimidamide, dihydrochloride], the results for the IC50 in assay [1], in assay [2] and in assay [3] were 837 µM, 6620 µM and 106 µM, respectively.

With `CC(=N)NCCCC[C@H](N)CNC(=N)N` [Example 2, N-[5S-amino-6-[(aminoiminomethyl)amino]hexyl]ethanimidamide, trihydrochloride], the values for the half-maximal inhibitory concentration (IC50) in assay [1], in assay [2] and in assay [3] were 35 µM, 479 µM and 22 µM, respectively.

Turning to `CN=C(N)NCCC[C@H](N)C(=O)O` [L-NMMA, L-N-monomethyl-arginine], the “selectivity between constitutive and inducible NO synthase” value in assay [4] is reported as “non-selective”.
